Measurements as given in the C3SDB collision cross section collection.
Values joined by “and” are separate entries in the source; they are usually repeats but may differ in a detail not shown here. Equal entries are not always repeated.

Conditions: instrument: DT, single field, calibrated with ESI Low Concentration Tuning Mix (Agilent)

| collision cross section (N2) ([M+Na]+) | collision cross section (N2) ([M-H]-) | collision cross section (N2) ([M+H]+) | collision cross section (N2) ([M+Na-2H]-) | collision cross section (N2) ([M+K]+) | SMILES |
| --- | --- | --- | --- | --- | --- |
| 136.2 Å² | 125.8 Å² | – | – | – | OC[C@@H](O)C(O)[C@@H](O)CO (stereo partly drawn) [RIBITOL] |
| – | 129.5 Å² | 132.2 Å² | 137.2 Å² | – | CN[C@@H](CCC(=O)O)C(=O)O [N-METHYLGLUTAMATE] |
| – | – | 241.3 Å² | – | – | C=Cc1c(C)c2cc3[nH]c(cc4nc(cc5nc(cc1[nH]2)C(C)=C5CCC(=O)O)C(CCC(=O)O)=C4C)c(C)c3C=C [PROTOPORPHYRIN] |
| 141.5 Å² | – | – | – | – | OC[C@H]1OC(O)[C@@H](O)[C@@H](O)[C@@H]1O (stereo partly drawn) [MANNOSE] |
| 149.9 Å² | 140.5 Å² | – | – | – | CC(=O)N[C@@H](CC(C)C)C(=O)O [N-ACETYLLEUCINE] |
| 160.9 Å² | 150.7 Å² | – | – | – | O=c1ccn([C@@H]2O[C@H](CO)[C@@H](O)[C@H]2O)c(=O)[nH]1 [URIDINE] |
| 134.5 Å² | – | – | – | – | O=C(O)CP(=O)(O)O [PHOSPHONOACETATE] |
| 188.8 Å² | 180.1 Å² and 180.2 Å² | 187 Å² | 190.2 Å² | – | O=c1ccn([C@@H]2O[C@H](COP(=O)(O)OP(=O)(O)OP(=O)(O)O)[C@@H](O)[C@H]2O)c(=O)[nH]1 [URIDINE TRIPHOSPHATE] |
| 168.7 Å² | 158.5 Å² and 163.8 Å² | 166.5 Å² | 171.4 Å² | – | CC(=O)N[C@H]1[C@H]([C@H](O)[C@H](O)CO)OC(O)(C(=O)O)C[C@@H]1O (stereo partly drawn) [N-ACETYLNEURAMINATE] |
| – | – | 130.7 Å² | – | – | O=c1[nH]c(=O)c2[nH]c(=O)[nH]c2[nH]1 [URATE] |
| 151.7 Å² | 134.5 Å² | – | – | – | O=C(O)C1(O)C[C@@H](O)C(O)[C@H](O)C1 (stereo partly drawn) [QUINATE] |
| 151.5 Å² | – | 148.6 Å² | – | – | NCCCNCCCCNCCCN [SPERMINE] |
| 135.4 Å² | 124.8 Å² | – | – | – | OC[C@@H](O)C(O)[C@@H](O)CO (stereo partly drawn) [XYLITOL] |
| 137.6 Å² | – | – | – | – | OCC1(O)OC[C@@H](O)[C@@H](O)[C@H]1O (stereo partly drawn) [PSICOSE] |
| 142.4 Å² | 136.9 Å² | – | 143.3 Å² | – | CC(=O)N[C@@H](CCC(=O)O)C(=O)O [N-ACETYLGLUTAMATE] |
| 147.7 Å² | 134.3 Å² | 140.4 Å² | – | – | O=C(O)c1cc(=O)c2cccc(O)c2[nH]1 [XANTHURENATE] |
| – | 121 Å² | – | – | – | O=C([O-])c1cccnc1 [NICOTINATE] |
| 134.9 Å² | – | – | – | – | OC1OC[C@@H](O)[C@H](O)[C@H]1O (stereo partly drawn) [XYLOSE] |

Second part, the molecule before the results:

| SMILES | collision cross section (N2) ([M+Na]+) | collision cross section (N2) ([M-H]-) | collision cross section (N2) ([M+H]+) | collision cross section (N2) ([M+Na-2H]-) | collision cross section (N2) ([M+K]+) |
| --- | --- | --- | --- | --- | --- |
| Nc1ccccc1C(=O)O [ANTHRANILATE] | – | 125.5 Å² | – | – | – |
| NC(=O)NC1NC(=O)NC1=O (stereo not drawn) [ALLANTOIN] | 142.2 Å² | 125.5 Å² | – | – | – |
| C[C@@H]1OC(O)[C@@H](O)[C@H](O)[C@@H]1O (stereo partly drawn) [FUCOSE] | 138.7 Å² | – | – | – | – |
| O=C(O)C(O)COP(=O)(O)O (stereo not drawn) [3-PHOSPHOGLYCERATE] | 139.4 Å² | 124.4 Å² | 136.1 Å² | 133 Å² and 141.6 Å² | – |
| N[C@@H]1[C@@H](O)[C@H](O)[C@@H](COS(=O)(=O)O)O[C@H]1O [GLUCOSAMINE 6-SULFATE] | – | 149.4 Å² | – | – | – |
| Nc1nc(=O)c2ncn([C@@H]3O[C@H](COP(=O)(O)OP(=O)(O)O)[C@@H](O)[C@H]3O)c2[nH]1 [GUANOSINE DIPHOSPHATE] | 188.4 Å² | 182.4 Å² | 192 Å² | 186.4 Å² | – |
| N[C@@H]1C(O)O[C@H](CO)[C@@H](O)[C@@H]1O (stereo partly drawn) [D-MANNOSAMINE] | 141.3 Å² | – | 138.1 Å² | – | – |
| O=C(O)c1ccc([O-])cc1 [4-HYDROXYBENZOATE] | – | 121.2 Å² | – | – | – |
| N[C@@H](Cc1ccc(O)c(O)c1)C(=O)O [L-DOPA] | 147.5 Å² | 140.6 Å² | 149.4 Å² | – | – |
| CNCCc1c[nH]c2ccccc12 [N-METHYLTRYPTAMINE] | – | – | 142.5 Å² | – | – |
| CC(O)(CC(=O)O)C(=O)O (stereo not drawn) [CITRAMALATE] | 133.2 Å² | 122 Å² | – | – | – |
| O=C(O)Cc1ccccc1O [2-HYDROXYPHENYLACETATE] | – | 130.1 Å² | – | – | – |
| NC(CCSSCCC(N)C(=O)O)C(=O)O (stereo not drawn) [HOMOCYSTINE] | 158.8 Å² | 151.6 Å² | 158 Å² | 154.2 Å² | – |
| Cn1cnc(C[C@H](N)C(=O)O)c1 [1-METHYL-L-HISTIDINE] | 138.4 Å² | – | 133.4 Å² | – | – |
| OC[C@H]1O[C@H](O[C@H]2[C@H](O)[C@@H](O)[C@H](O)O[C@@H]2CO)[C@H](O)[C@@H](O)[C@@H]1O [MALTOSE] | 178.9 Å² | 180.1 Å² | – | – | 181.7 Å² |
| O=C(O)CCCCCCCCCCCO [OMEGA-HYDROXYDODECANOATE] | 160.3 Å² | 152.6 Å² | – | – | – |
| Nc1nc(=O)c2ncn([C@@H]3O[C@@H]4COP(=O)(O)O[C@H]4[C@H]3O)c2[nH]1 [CYCLIC GMP] | 184.2 Å² | 167.8 Å² | 172.4 Å² | 169.7 Å² | – |
| CCCCC/C=C\C/C=C\CCCCCCCC(=O)O [LINOLEATE] | 177 Å² | – | – | – | – |
| COc1cc(CCN)ccc1O [3-METHOXYTYRAMINE] | – | – | 146.7 Å² | – | – |
| O=C(O)[C@@H](O)[C@H](O)[C@H](O)[C@@H](O)C(=O)O [GALACTARATE] | 146.9 Å² | 132.6 Å² | – | 137.2 Å² | – |

| SMILES | collision cross section (N2) ([M+Na]+) | collision cross section (N2) ([M-H]-) | collision cross section (N2) ([M+H]+) | collision cross section (N2) ([M+Na-2H]-) | collision cross section (N2) ([M+K]+) |
| --- | --- | --- | --- | --- | --- |
| NC1(C(=O)[O-])CC1 [1-AMINOCYCLOPROPANECARBOXYLATE] | – | 135.1 Å² | – | – | – |
| CC(C)C[C@H](N)C(=O)O [LEUCINE] | – | 130.6 Å² | 134.8 Å² | – | – |
| O=C(O)CC(C(=O)O)C(O)C(=O)O (stereo not drawn) [ISOCITRATE] | 142.7 Å² | 127 Å² | – | 136.4 Å² | – |
| C=C(CC(=O)O)C(=O)O [ITACONATE] | 131.7 Å² | 118.7 Å² | – | – | – |
| CC(=O)OCC(=O)[C@@]1(O)CC[C@H]2[C@@H]3CCC4=CC(=O)CC[C@]4(C)[C@H]3[C@@H](O)C[C@@]21C [CORTISOL 21-ACETATE] | 203 Å² | 196.3 Å² | 198.8 Å² | – | 207.2 Å² |
| C=CC1=C(C)C(/C=c2\[nH]/c(=C\c3[nH]c(/C=C4\NC(=O)C(C)=C4C=C)c(C)c3CCC(=O)O)c(CCC(=O)O)c2C)=NC1=O [BILIVERDIN] | 246.5 Å² | 246 Å² | 243.9 Å² | – | – |
| Nc1nc(=O)c2ncn([C@@H]3O[C@H](COP(=O)(O)OP(=O)(O)O[C@H]4O[C@H](CO)[C@@H](O)[C@H](O)[C@@H]4O)[C@@H](O)[C@H]3O)c2[nH]1 [GUANOSINE DIPHOSPHATE MANNOSE] | 222.3 Å² | 209 Å² | 227.4 Å² | 205.5 Å² and 217.2 Å² | – |
| C[N+](C)(C)C[C@@H](CC(=O)[O-])OC(=O)CCCC(=O)O [GLUTARYLCARNITINE] | 167.1 Å² | 165.3 Å² | 161.1 Å² | – | – |
| O=C(O)c1cc(O)ccc1[O-] [2,5-DIHYDROXYBENZOATE] | – | 124.6 Å² | – | – | – |
| N[C@@H](Cc1ccc(O)c([N+](=O)[O-])c1)C(=O)O [3-NITRO-L-TYROSINE] | 154.5 Å² | 148.9 Å² | 158.2 Å² | 147.7 Å² | – |
| CC(=O)NCCCC(=O)O [4-ACETAMIDOBUTANOATE] | 135.7 Å² | 130.8 Å² | – | – | – |
| O=C(O)c1ccc2ccccc2n1 [2-QUINOLINECARBOXYLATE] | – | – | 132 Å² | – | – |
| O=c1[nH]c(=O)c2nccnc2[nH]1 [2,4-DIHYDROXYPTERIDINE] | 143.8 Å² | 125.3 Å² | 132.4 Å² | – | – |
| O=C/C=C/c1ccccc1 [TRANS-CINNAMALDEHYDE] | – | – | 121.5 Å² | – | – |
| NC(CCSCC(N)C(=O)O)C(=O)O (stereo not drawn) [CYSTATHIONINE] | 147.1 Å² | 141.9 Å² | 147.3 Å² | 144.6 Å² | – |
| NC(N)=N[C@@H](CC(=O)O)C(=O)O [GUANIDINOSUCCINATE] | 148 Å² | 130.2 Å² | 136.8 Å² | 147 Å² | – |
| NC(N)=NCCCC(=O)O [4-GUANIDINOBUTANOATE] | – | – | 130 Å² | – | – |
| OC[C@@H](O)[C@H](O)[C@H](O)[C@@H](O)CO [GALACTITOL] | 142.2 Å² | 130.5 Å² | – | – | – |
| NC(CCCC(=O)O)C(=O)O (stereo not drawn) [AMINOADIPATE] | 139.2 Å² | 129.9 Å² | 134.6 Å² | 134 Å² | – |
